Assay results as given in the supplement of paper PMC5908809.

Experiments:
Assay in all cases: relative IC50 (inflection point of fitted viability curve, relative to fitted max inhibition); higher = less sensitive
Conditions in all cases: 72 h
[1] = system: NKL (IL-2 2.5 ng/mL)
Method: (§1)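 Drug sensitivity and resistance testing: 5 concentrations over a 10,000-fold range, 72 h at 37 °C, viability by CellTiter-Glo normalised to DMSO and benzethonium chloride controls. IC50 is the inflection point of a logistic fit (min fixed at 0, max fitted), so it is relative to the fitted maximal inhibition. Kept only where fitted max inhibition is at least 50%.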

[2] = system: KAI3 (IL-2 2.5 ng/mL)
Method: as §1

[3] = system: NK-92 (IL-2 2.5 ng/mL)
Method: as §1

[4] = system: DERL-7 (IL-2 2.5 ng/mL)
Method: as §1

[5] = system: KHYG-1 (IL-2 2.5 ng/mL)
Method: as §1

[6] = system: NK-YS (IL-2 2.5 ng/mL)
Method: as §1

[7] = system: SNK-6 (IL-2 2.5 ng/mL)
Method: as §1

[8] = system: IMC-1 (IL-2 20 ng/mL)
Method: as §1

[9] = system: YT (IL-2 2.5 ng/mL)
Method: as §1

[10] = system: normal primary NK cells, pool 2 (3 donors) (IL-2 2.5 ng/mL)
Method: as §1

| Compound | relative IC50 [1] [nM] | relative IC50 [2] [nM] | relative IC50 [3] [nM] | relative IC50 [4] [nM] | relative IC50 [5] [nM] | relative IC50 [8] [nM] | also measured |
| --- | --- | --- | --- | --- | --- | --- | --- |
| CN1CCN(c2nc(C3=C(c4c[nH]c5ccccc45)C(=O)NC3=O)c3ccccc3n2)CC1 [Sotrastaurin] | 499 | 1620 | 1690 | 1080 | 1800 | – | – |
| CCn1c(C(=O)N(C2CC2)C2CC2)cc2c3c(ncn3C)c(Nc3cc(C)n(C)n3)nc21 | 797 | 180 | 1980 | 1630 | 1820 | – | – |
| NC(=O)NO [Hydroxyurea] | – | 2630 | – | – | – | – | – |
| C[C@H](Nc1ncnc2nc[nH]c12)c1cc2cccc(Cl)c2c(=O)n1-c1ccccc1 [Duvelisib] | – | – | – | 44.5 | – | – | – |
| CCC(C)(C)C(=O)O[C@H]1C[C@@H](C)C=C2C=C[C@H](C)[C@H](CC[C@@H]3C[C@@H](O)CC(=O)O3)[C@H]21 [Simvastatin] | 2450 | – | – | – | – | – | relative IC50 [6]: 2380 nM |
| CO[C@@H](C(=O)N1Cc2[nH]nc(NC(=O)c3ccc(N4CCN(C)CC4)cc3)c2C1)c1ccccc1 [Danusertib] | 1380 | 460 | 337 | 175 | 493 | 312 | relative IC50 [6]: 204 nM; relative IC50 [7]: 413 nM |
| CC(C)c1c(C(=O)Nc2ccccc2)c(-c2ccccc2)c(-c2ccc(F)cc2)n1CC[C@@H](O)C[C@@H](O)CC(=O)O [Atorvastatin] | 332 | 2760 | 3670 | 2180 | 2380 | 1520 | relative IC50 [6]: 579 nM; relative IC50 [9]: 1630 nM |
| NC1(c2ccc(-c3nc4ccn5c(=O)[nH]nc5c4cc3-c3ccccc3)cc2)CCC1 [MK-2206] | – | – | – | 103 | – | – | – |
| O=C(NC[C@H](O)CO)c1ccncc1Nc1ccc(I)cc1F [Pimasertib] | 49 | – | – | – | 83 | – | relative IC50 [7]: > 10000 nM |
| COc1ccc2c(OCc3nnc4ccc(-c5ccccc5)nn34)ccnc2c1 [AMG-208] | – | – | – | > 2500 | – | – | – |
| CCN(CC)CCNC(=O)c1c(C)[nH]c(/C=C2\C(=O)Nc3ccc(F)cc32)c1C [Sunitinib] | > 1000 | – | > 1000 | – | > 1000 | > 1000 | – |
| CC(C)(C)NC(=O)[C@H]1CC[C@H]2[C@@H]3CC[C@H]4NC(=O)C=C[C@]4(C)[C@H]3CC[C@]12C [Finasteride] | – | – | – | – | – | – | relative IC50 [7]: > 10000 nM |
| COc1cc(Nc2ncc(F)c(Nc3ccc4c(n3)N(COP(=O)(O)O)C(=O)C(C)(C)O4)n2)cc(OC)c1OC [Fostamatinib] | – | – | – | – | – | > 2500 | – |
| Cn1ncnc1[C@H]1c2n[nH]c(=O)c3cc(F)cc(c23)N[C@@H]1c1ccc(F)cc1 [Talazoparib] | 2.3 | 28.1 | 59.8 | – | 93.8 | 164 | relative IC50 [6]: 22.2 nM; relative IC50 [7]: 134 nM |
| Nc1nc(OCc2cc(Br)cs2)c2[nH]cnc2n1 [Lomeguatrib] | 1900 | – | – | – | – | – | – |
| N#Cc1ccc2[nH]c(O)c(-c3ccc(CN4CCOCC4)cn3)c2c1 [AZD-1080] | – | – | > 10000 | 3420 | – | 3180 | relative IC50 [7]: > 10000 nM |
| O=c1sn(-c2cccc3ccccc23)c(=O)n1Cc1ccccc1 [Tideglusib] | – | – | > 3000 | – | – | – | – |
| O=C(NOCCO)c1ccc2cncn2c1Nc1ccc(I)cc1F [GDC-0623] | 22.1 | – | > 2500 | – | 25.6 | > 2500 | – |
| O=C(O)c1ccc(-c2c[nH]c3ncc(-c4ccccc4)cc23)cc1C1CCCC1 | 1400 | 307 | 2330 | 2820 | 1490 | 3040 | relative IC50 [6]: 1460 nM |
| CC(C)Cn1cnc2c(N)nc3ccccc3c21 [Imiquimod] | – | – | – | – | – | – | relative IC50 [7]: 89.6 nM |
| O=C(Nc1cc(Cl)cc2c1[nH]c1cnccc12)c1cccnc1 [PS-1145] | – | 1650 | – | – | – | – | – |
| N#CC1(c2ccc(NC(=O)c3cccnc3NCc3ccncc3)cc2)CCCC1 [Apatinib] | > 10000 | – | 1710 | – | – | – | relative IC50 [10]: > 10 µM |
| CC(C)NC[C@@H](C(=O)N1CCN(c2ncnc3c2[C@H](C)C[C@H]3O)CC1)c1ccc(Cl)cc1 [GDC-0068] | – | – | – | 1030 | – | – | – |
| C=C(c1ccc(C(=O)O)cc1)c1cc2c(cc1C)C(C)(C)CCC2(C)C [Bexarotene] | 208 | – | – | – | – | – | – |
